Assay results: patent US20020155443A1, “Metal binding DNA interactive compounds” (priority 2000, published 2002)

Columns and labels:
Type in all cases: cell-based
HOP-62 = experiment: DTP Human Tumor Cell Line Screen, sulforhodamine B assay; conditions: Non-Small Cell Lung Cancer, 48 h
Description: (§1) The growth inhibitory activity of propargylic sulfone 3.2 against a wide range of human cancer cell lines was determined calorimetrically with sulforhodamine B assay conducted by the National Cancer Institute of the National Institutes of Health.
(§2) The in vitro cytotoxicity of compounds 2.47, 2.48 and 3.2 were investigated using the DTP Human Tumor Cell Line Screen. The concept, rationale and history of development of the DTP Human Tumor Cell Line Screen were described by Boyd (1993;1997)^8.4, 8.6 and Boyd and Paull (1995)^8.5. Further technical details of the NCI screening procedures were described (Monks, et. al.)^8.2 as were the origins and processing of the cell lines (Alley, et. al., Shoemaker, et. al., Stinson, et. al.). Briefly, cell suspensions that were diluted according to the particular cell type and the expected target cell density (5000-40,000 cells per well based on cell growth characteristics) were added by pipet (100 μL) into 96-well microtiter plates. Inoculates were allowed a preincubation period of 24 h at 37° C. for stabilization. Dilutions at twice the intended test concentration were added at time zero in 100-μL aliquots to the microtiter plate wells. Usually, test compounds were evaluated at five 10-fold dilutions. In routine testing, the highest well concentration is 10E-4 M, but for the standard agents the highest well concentration used depended on the agent. Incubations lasted for 48 h in 5% CO2 atmosphere and 100% humidity. The cells were assayed by using the sulforhodamine B assay (Rubinstein, et. al., Skehan, et. al.). A plate reader was used to read the optical densities, and a microcomputer processed the optical densities into the special concentration parameters.

MOLT-4 = experiment: as above; conditions: Leukemia, 48 h
Description: as §1, §2

OVCAR-4 = experiment: as above; conditions: Ovarian Cancer, 48 h
Description: as §1, §2

SF-539 = experiment: as above; conditions: CNS Cancer, 48 h
Description: as §1, §2

ACHN = experiment: as above; conditions: Renal Cancer, 48 h
Description: as §1, §2

SNB-19 = experiment: as above; conditions: CNS Cancer, 48 h
Description: as §1, §2

MDA-MB-435 = experiment: as above; conditions: Breast Cancer, 48 h
Description: as §1, §2

HCT-116 = experiment: as above; conditions: Colon Cancer, 48 h
Description: as §1, §2

NCI-H522 = experiment: as above; conditions: Non-Small Cell Lung Cancer, 48 h
Description: as §1, §2

MCF7 = experiment: as above; conditions: Breast Cancer, 48 h
Description: as §1, §2

HOP-92 = experiment: as above; conditions: Non-Small Cell Lung Cancer, 48 h
Description: as §1, §2

U251 = experiment: as above; conditions: 48 h
Description: as §1, §2

MCF7/ADR-RES = experiment: as above; conditions: Breast Cancer, 48 h
Description: as §1, §2

HL-60 (TB) = experiment: as above; conditions: Leukemia, 48 h
Description: as §1, §2

SK-MEL-2 = experiment: as above; conditions: Melanoma, 48 h
Description: as §1, §2

K-562 = experiment: as above; conditions: 48 h
Description: as §1, §2

HS 578T = experiment: as above; conditions: Breast Cancer, 48 h
Description: as §1, §2

786-0 = experiment: as above; conditions: Renal Cancer, 48 h
Description: as §1, §2

NCI-H460 = experiment: as above; conditions: Non-Small Cell Lung Cancer, 48 h
Description: as §1, §2

SF-295 = experiment: as above; conditions: CNS Cancer, 48 h
Description: as §1, §2

SF-268 = experiment: as above; conditions: CNS Cancer, 48 h
Description: as §1, §2

EKVX = experiment: as above; conditions: Non-Small Cell Lung Cancer, 48 h
Description: as §1, §2

NCI-H226 = experiment: as above; conditions: Non-Small Cell Lung Cancer, 48 h
Description: as §1, §2

COLO 205 = experiment: as above; conditions: Colon Cancer, 48 h
Description: as §1, §2

SNB-75 = experiment: as above; conditions: CNS Cancer, 48 h
Description: as §1, §2

TK-10 = experiment: as above; conditions: Renal Cancer, 48 h
Description: as §1, §2

DU-145 = experiment: as above; conditions: Prostate Cancer, 48 h
Description: as §1, §2

SK-MEL-5 = experiment: as above; conditions: Melanoma, 48 h
Description: as §1, §2

MDA-N = experiment: as above; conditions: Breast Cancer, 48 h
Description: as §1, §2

OVCAR-3 = experiment: as above; conditions: Ovarian Cancer, 48 h
Description: as §1, §2

SN12C = experiment: as above; conditions: Renal Cancer, 48 h
Description: as §1, §2

OVCAR-8 = experiment: as above; conditions: Ovarian Cancer, 48 h
Description: as §1, §2

OVCAR-5 = experiment: as above; conditions: Ovarian Cancer, 48 h
Description: as §1, §2

SK-OV-3 = experiment: as above; conditions: Ovarian Cancer, 48 h
Description: as §1, §2

SW-620 = experiment: as above; conditions: Colon Cancer, 48 h
Description: as §1, §2

LOX IMVI = experiment: as above; conditions: Melanoma, 48 h
Description: as §1, §2

HCT-15 = experiment: as above; conditions: Colon Cancer, 48 h
Description: as §1, §2

PC-3 = experiment: as above; conditions: Prostate Cancer, 48 h
Description: as §1, §2

human cancer cell lines = experiment: Growth inhibition across the human cancer cell line panel (overall statement); conditions: wide range of human cancer cell lines, in words
Description: The growth inhibitory activities of bis(propargylic) sulfone crown ethers 2.47 and 2.48 against B16 murine melanoma cells were determined calorimetrically with an MTT assay conducted by the Institute for Drug Development at the Cancer Research and Therapy Center in San Antonio, Tex.
as §1, §2

With `O=S1(=O)CC#CCOCCOCCOCCOCCOCCOCCOCC#CC1` [Compound 2.48] the IC50 (HOP-62) was 21 µM, the IC50 (MOLT-4) was 19.9 µM and the IC50 (OVCAR-4) was 27.3 µM. It also gave an IC50 (SF-539) of 26.2 µM, an IC50 (ACHN) of 22.4 µM and an IC50 (SNB-19) of 27.9 µM. For the same compound, the IC50 (MDA-MB-435) was 20.4 µM, the IC50 (HCT-116) was 15.3 µM and the IC50 (NCI-H522) was 10.6 µM. It also gave an IC50 (MCF7) of 22 µM, an IC50 (HOP-92) of 19.6 µM and an IC50 (U251; CNS Cancer) of 18.3 µM. It also gave an IC50 (MCF7/ADR-RES) of over 100 µM, an IC50 (HL-60 (TB)) of 20.9 µM and an IC50 (SK-MEL-2) of 17.3 µM. The IC50 (K-562; Leukemia) was 23.9 µM, the IC50 (HS 578T) was 52.8 µM and the IC50 (786-0) was 18.4 µM. It also gave an IC50 (NCI-H460) of 38 µM, an IC50 (SF-295) of 81.2 µM and an IC50 (SF-268) of 30.5 µM. The IC50 (EKVX) was 20.9 µM, the IC50 (NCI-H226) was 86.9 µM and the IC50 (COLO 205) was 14.7 µM. The IC50 (SNB-75) was 32.6 µM, the IC50 (TK-10) was 23 µM and the IC50 (DU-145) was over 100 µM. For the same compound, the IC50 (SK-MEL-5) was 18.1 µM, the IC50 (MDA-N) was 18.9 µM and the IC50 (OVCAR-3) was 19.7 µM. It also gave an IC50 (SN12C) of 18.8 µM, an IC50 (OVCAR-8) of 33.3 µM and an IC50 (OVCAR-5) of 18 µM. It also gave an IC50 (SK-OV-3) of 32.2 µM, an IC50 (SW-620) of 14.3 µM and an IC50 (LOX IMVI) of 19.9 µM. The IC50 (HCT-15) was 32.7 µM, the IC50 (PC-3) was 43.4 µM and the “growth inhibitory properties against human cancer cell lines” value (“growth inhibitory properties” below) (human cancer cell lines) was “display growth inhibitory properties”.

`O=S1(=O)CC#CCOCCOCCOCCOCCOCCOCC#CC1` [Compound 2.47] gave an IC50 (HOP-62) of 21.7 µM, an IC50 (MOLT-4) of 3.7 µM and an IC50 (OVCAR-4) of 19.8 µM. The IC50 (SF-539) was 11.1 µM, the IC50 (ACHN) was 13.5 µM and the IC50 (SNB-19) was 18.2 µM. It also gave an IC50 (MDA-MB-435) of 13.3 µM, an IC50 (HCT-116) of 8.1 µM and an IC50 (NCI-H522) of 2.86 µM. For the same compound, the IC50 (MCF7) was 10.1 µM, the IC50 (HOP-92) was 10.9 µM and the IC50 (U251; CNS Cancer) was 16.9 µM. It also gave an IC50 (MCF7/ADR-RES) of 25.7 µM, an IC50 (HL-60 (TB)) of 13.5 µM and an IC50 (SK-MEL-2) of 16.1 µM. The IC50 (K-562; Leukemia) was 11.2 µM, the IC50 (HS 578T) was 40.7 µM and the IC50 (786-0) was 11 µM. It also gave an IC50 (NCI-H460) of 19.3 µM, an IC50 (SF-295) of 32 µM and an IC50 (SF-268) of 24.2 µM. For the same compound, the IC50 (EKVX) was 15.1 µM, the IC50 (NCI-H226) was 39.7 µM and the IC50 (COLO 205) was 7.2 µM. The IC50 (SNB-75) was 19.9 µM, the IC50 (TK-10) was 13.9 µM and the IC50 (DU-145) was 32.8 µM. For the same compound, the IC50 (SK-MEL-5) was 16.8 µM, the IC50 (MDA-N) was 14.2 µM and the IC50 (OVCAR-3) was 15.8 µM. It also gave an IC50 (SN12C) of 13.2 µM, an IC50 (OVCAR-8) of 14.2 µM and an IC50 (OVCAR-5) of 17.1 µM. For the same compound, the IC50 (SK-OV-3) was 36 µM, the IC50 (SW-620) was 10.4 µM and the IC50 (LOX IMVI) was 11.1 µM. The IC50 (HCT-15) was 15.5 µM, the IC50 (PC-3) was 18.6 µM and the “growth inhibitory properties” value (human cancer cell lines) was “display growth inhibitory properties”.

Compound `O=C(OCC1COCCOCCOCCOCCO1)c1ccc(CS(=O)(=O)CC#CCO)cc1` (stereo not drawn) [Compound 3.2] has an IC50 (HOP-62; Homo sapiens) of over 100 µM, an IC50 (MOLT-4; Homo sapiens) of over 100 µM and an IC50 (OVCAR-4; Homo sapiens) of over 100 µM. The IC50 (SF-539; Homo sapiens) was 46.8 µM, the IC50 (ACHN; Homo sapiens) was over 100 µM and the IC50 (SNB-19; Homo sapiens) was over 100 µM. It also gave an IC50 (MDA-MB-435; Homo sapiens) of over 100 µM, an IC50 (HCT-116; Homo sapiens) of over 100 µM and an IC50 (NCI-H522; Homo sapiens) of 18.8 µM. It also gave an IC50 (MCF7; Homo sapiens) of over 100 µM, an IC50 (HOP-92; Homo sapiens) of 41.6 µM and an IC50 (U251; Homo sapiens, U-251, CNS Cancer) of 69 µM. It also gave an IC50 (MCF7/ADR-RES; Homo sapiens) of over 100 µM, an IC50 (HL-60 (TB); Homo sapiens) of over 100 µM and an IC50 (SK-MEL-2; Homo sapiens) of 98.7 µM. It also gave an IC50 (K-562; Homo sapiens, K562, Leukemia) of 37 µM, an IC50 (HS 578T; Homo sapiens) of 80 µM and an IC50 (786-0; Homo sapiens) of 35.3 µM. The IC50 (NCI-H460; Homo sapiens) was over 100 µM, the IC50 (SF-295; Homo sapiens) was over 100 µM and the IC50 (SF-268; Homo sapiens) was over 100 µM. The IC50 (EKVX; Homo sapiens) was over 100 µM, the IC50 (NCI-H226; Homo sapiens) was over 100 µM and the IC50 (COLO 205; Homo sapiens) was over 100 µM. It also gave an IC50 (SNB-75; Homo sapiens) of over 100 µM, an IC50 (TK-10; Homo sapiens) of over 100 µM and an IC50 (DU-145; Homo sapiens) of over 100 µM. It also gave an IC50 (SK-MEL-5; Homo sapiens) of over 100 µM, an IC50 (MDA-N; Homo sapiens) of 37.4 µM and an IC50 (OVCAR-3; Homo sapiens) of over 100 µM. For the same compound, the IC50 (SN12C; Homo sapiens) was 30.3 µM, the IC50 (OVCAR-8; Homo sapiens) was over 100 µM and the IC50 (OVCAR-5; Homo sapiens) was over 100 µM. The IC50 (SK-OV-3; Homo sapiens) was over 100 µM, the IC50 (SW-620; Homo sapiens) was 67 µM and the IC50 (LOX IMVI; Homo sapiens) was 54.3 µM. The IC50 (HCT-15; Homo sapiens) was over 100 µM, the IC50 (PC-3; Homo sapiens) was over 100 µM and the “growth inhibitory properties” value (human cancer cell lines) was “modest growth inhibitory properties”.
